{"source": "paper PMC10980815", "about": "“Cell surface patching via CXCR4-targeted nanothreads for cancer metastasis inhibition” (Nature Communications, 2024)", "key": {"[1]": {"target": "T1, CCR4 (Mus musculus, UniProt P51680)", "T1 construct": "endogenous in cells; host or cells: 4T1 murine breast cancer cells", "T1 sequence (P51680 1-360)": "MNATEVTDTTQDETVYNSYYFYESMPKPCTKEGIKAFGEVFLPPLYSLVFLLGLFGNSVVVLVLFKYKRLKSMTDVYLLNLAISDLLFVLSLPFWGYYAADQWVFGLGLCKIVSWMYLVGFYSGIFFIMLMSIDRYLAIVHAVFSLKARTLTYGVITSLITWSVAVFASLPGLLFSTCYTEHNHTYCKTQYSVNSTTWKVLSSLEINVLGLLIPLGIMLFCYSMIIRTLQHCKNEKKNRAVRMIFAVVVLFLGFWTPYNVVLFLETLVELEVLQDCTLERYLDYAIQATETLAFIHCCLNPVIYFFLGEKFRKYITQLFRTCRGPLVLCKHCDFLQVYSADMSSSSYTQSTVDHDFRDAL", "experiment": "Dose-dependent chemokine receptor occupation assay", "format": "binding, 4T1 murine cells", "conditions": "4T1 cells, 0.1 nM to 1 mM, 1 h", "procedure": "(§1) To validate the specificity of the BS (CXCR4-binding sequence) to CXCR4, a dose-dependent chemokine receptors occupation assay and a chemokine receptors competitive binding assay were conducted. […] Unoccupied chemokine receptors (CXCR4, CXCR7, CXCR2, CXCR5, and CCR4) on cell surface were stained with PE anti-human CD184/CXCR4 Antibody (1:300 dilution), anti-CXCR7-PE (1:300 dilution), anti-CXCR2-PE (1:300 dilution), anti-CXCR5-PE (1:300 dilution), and PE anti-human CD194/CCR4 Antibody (1:300 dilution) at 4 °C for 1 h, prior to flow cytometry analysis. In the chemokine receptors competitive binding assay, 4T1 cells (5 × 10^5 cells) were pre-blocked with PE anti-human CD184/CXCR4 Antibody (1:300 dilution), anti-CXCR7-PE (1:300 dilution), anti-CXCR2-PE (1:300 dilution), anti-CXCR5-PE (1:300 dilution), and PE anti-human CD194/CCR4 Antibody (1:300 dilution) at 4 °C for 1 h. Subsequently, these cells were treated with P-Cy5-BS-CM1-Cy5 (5 nM Cy5 equivalence) for 1 h. Following the treatments, cells were washed three times with PBS and subjected to flow cytometry analysis."}, "[2]": {"target": "T2, CXCR7 (Mus musculus, UniProt P56485)", "T2 construct": "endogenous in cells; host or cells: 4T1 murine breast cancer cells", "T2 sequence (P56485 whole entry)": "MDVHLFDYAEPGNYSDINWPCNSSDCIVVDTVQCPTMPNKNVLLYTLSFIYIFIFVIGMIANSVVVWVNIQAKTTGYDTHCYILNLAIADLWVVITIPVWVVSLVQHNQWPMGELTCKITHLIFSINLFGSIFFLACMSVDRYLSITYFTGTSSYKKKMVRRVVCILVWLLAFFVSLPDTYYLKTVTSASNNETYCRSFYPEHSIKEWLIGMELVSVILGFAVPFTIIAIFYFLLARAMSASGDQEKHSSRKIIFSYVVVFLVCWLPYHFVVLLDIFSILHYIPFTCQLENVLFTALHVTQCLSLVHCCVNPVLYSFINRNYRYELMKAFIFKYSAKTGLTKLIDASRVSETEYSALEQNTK", "experiment": "Dose-dependent chemokine receptor occupation assay", "format": "binding, 4T1 murine cells", "conditions": "4T1 cells, 0.1 nM to 1 mM, 1 h", "procedure": "as §1"}}, "data": [{"sequence": "LGASWHRPDKCCLGYQKRPLPA [Free BS]", "values": [{"measurement": "CCR4 occupation", "setting": "[1]", "result": "did not occupy"}, {"measurement": "CXCR7 occupation", "setting": "[2]", "result": "did not occupy"}]}]}
